Measured values from PMC6589914 (Chembiochem, 2019).

Assays:
[1] = biological target: T1, bFUCA1 (Bos taurus, UniProt Q2KIM0); assay: enzyme inhibition assay with 4-nitrophenyl α-L-fucopyranoside; type: biochemical
T1 sequence (Q2KIM0 23-468): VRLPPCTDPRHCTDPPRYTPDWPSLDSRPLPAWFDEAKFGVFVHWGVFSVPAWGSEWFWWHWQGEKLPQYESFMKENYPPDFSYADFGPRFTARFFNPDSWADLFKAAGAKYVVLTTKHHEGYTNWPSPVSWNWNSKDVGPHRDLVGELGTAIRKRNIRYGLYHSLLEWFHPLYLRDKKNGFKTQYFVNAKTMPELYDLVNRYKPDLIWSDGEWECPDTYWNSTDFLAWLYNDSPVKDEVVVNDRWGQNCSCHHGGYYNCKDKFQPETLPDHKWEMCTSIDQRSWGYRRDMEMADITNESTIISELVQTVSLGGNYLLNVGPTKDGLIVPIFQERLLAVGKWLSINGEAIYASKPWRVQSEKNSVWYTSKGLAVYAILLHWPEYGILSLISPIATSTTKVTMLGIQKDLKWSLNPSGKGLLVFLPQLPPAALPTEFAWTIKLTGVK

[2] = biological target: T2, BT2970 (Bacteroides thetaiotaomicron, UniProt Q8A3I4); assay: enzyme inhibition; type: biochemical
T2 sequence (Q8A3I4 30-484): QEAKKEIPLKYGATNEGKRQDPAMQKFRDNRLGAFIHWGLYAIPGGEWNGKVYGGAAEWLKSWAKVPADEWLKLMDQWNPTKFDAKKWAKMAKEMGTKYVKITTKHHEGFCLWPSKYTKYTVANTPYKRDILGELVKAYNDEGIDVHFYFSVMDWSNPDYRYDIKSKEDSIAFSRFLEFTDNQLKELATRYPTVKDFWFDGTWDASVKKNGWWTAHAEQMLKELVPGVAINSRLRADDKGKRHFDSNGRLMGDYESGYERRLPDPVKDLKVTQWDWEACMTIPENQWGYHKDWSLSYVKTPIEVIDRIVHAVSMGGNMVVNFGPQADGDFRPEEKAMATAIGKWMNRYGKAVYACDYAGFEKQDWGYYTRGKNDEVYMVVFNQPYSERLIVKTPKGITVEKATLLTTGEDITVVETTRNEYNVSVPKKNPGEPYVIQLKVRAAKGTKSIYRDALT

Compound	Ki [1] [µM]	Ki [2] [µM]
CCCCCCNC(=O)ON=C1O[C@@H](C)[C@@H](O)[C@@H](O)[C@@H]1O [compound 32, 32]	143 ± 8	–
CCCCc1ccc(NC(=O)ON=C2O[C@@H](C)[C@@H](O)[C@@H](O)[C@@H]2O)cc1 [compound 42, 42]	7.5 ± 0.4	–
COc1ccc(NC(=O)ON=C2O[C@@H](C)[C@@H](O)[C@@H](O)[C@@H]2O)cc1 [compound 41, 41]	9.5 ± 0.9	–
CC(C)NC(=O)ON=C1O[C@@H](C)[C@@H](O)[C@@H](O)[C@@H]1O [compound 33, 33]	320 ± 12	–
CCCCNC(=O)ON=C1O[C@@H](C)[C@@H](O)[C@@H](O)[C@@H]1O [compound 31, 31]	172 ± 7	–
CCCNC(=O)ON=C1O[C@@H](C)[C@@H](O)[C@@H](O)[C@@H]1O [compound 29, 29]	190 ± 11	–
C[C@@H]1OC(=NOC(=O)NC2CCCC2)[C@@H](O)[C@H](O)[C@@H]1O [compound 37, 37]	325 ± 8	–
CCCCCCCCCCc1ccc(NC(=O)ON=C2O[C@@H](C)[C@@H](O)[C@@H](O)[C@@H]2O)cc1 [compound 43, 43]	4.8 ± 0.5	–
C[C@@H]1OC(=NOC(=O)NC2CC2)[C@@H](O)[C@H](O)[C@@H]1O [compound 35, 35]	184 ± 6	–
C[C@@H]1O/C(=N\OC(=O)Nc2ccccc2)[C@@H](O)[C@H](O)[C@@H]1O [compound 39, 39]	11 ± 1	121 ± 24
C[C@@H]1OC(=NOC(=O)Nc2ccc(Br)cc2)[C@@H](O)[C@H](O)[C@@H]1O [compound 40, 40]	85 ± 4	–
C[C@@H]1OC(=NO)[C@@H](O)[C@H](O)[C@@H]1O [compound 12, 1,5-hydroximolactone 12]	323 ± 12	–
C[C@@H]1OC(=NOC(=O)NC(C)(C)C)[C@@H](O)[C@H](O)[C@@H]1O [compound 34, 34]	440 ± 9	–
C[C@@H]1OC(=NOC(=O)NC2CCC2)[C@@H](O)[C@H](O)[C@@H]1O [compound 36, 36]	220 ± 12	–
C=CCNC(=O)ON=C1O[C@@H](C)[C@@H](O)[C@@H](O)[C@@H]1O [compound 30, 30]	175 ± 6	–
